Test results taken from ChEMBL document CHEMBL4118051, “Scalemic Caged Xanthones Isolated from the Stem Bark Extract of Garcinia propinqua” (J Nat Prod, 2017).

Test system: HCT-116
Test: Cytotoxicity against human HCT116 cells after 24 hrs by MTT assay
Assay type: functional, cell-based
Details: HCT-116, 24 h

Row | Compound | IC50 [µM]
1 | CC(C)=CCOc1cc(O)c2c(c1)OC13C(=CC4CC1C(C)(C)OC3(CC=C(C)C)C4=O)C2=O (mixture of isomers) | 23.9
2 | CO[C@H]1[C@@H]2C[C@H]3C(C)(C)O[C@@](/C=C/C(C)(C)O)(C2=O)[C@@]32Oc3c(c(O)cc4c3C(C)(C)C(C)O4)C(=O)[C@H]12 (stereo partly drawn) | 14.2
3 | COc1cccc2c1C(=O)c1c(O)c3c(c(O)c1C2=O)C[C@@](O)(C(=O)CO)C[C@@H]3O[C@H]1C[C@H](N)[C@H](O)[C@H](C)O1 [DOXORUBICIN] | 9.74
